Experimental data: PubChem BioAssay (NCI)
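Grown in 96-well plates, cells were treated for 48 hours with each compound at five concentrations. Insufficient inhibition: endpoint recorded as highest concentration tested. At the TGI there is no net growth.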

Legend:
Test in all cases: growth of human tumour cells (NCI), 48 h
[1] = system: SK-MEL-2 melanoma
[2] = system: SK-MEL-28 melanoma
[3] = system: SF-539 CNS
[4] = system: U251 CNS
[5] = system: SW-620 colon
[6] = system: HL-60(TB) leukemia
[7] = system: EKVX NSCLC
[8] = system: KM12 colon
[9] = system: NCI/ADR-RES ovarian
[10] = system: HOP-92 NSCLC

SMILES | TGI [1] | TGI [2] | TGI [3] | TGI [4] | TGI [5] | TGI [6] | TGI [7] | TGI [8] | TGI [9] | TGI [10]
CC(C)(C)OC(=O)NC1CCC(C(C)(C)C)CC1 (stereo not drawn) | 71.3 µM | > 100 µM | > 100 µM | > 100 µM | > 100 µM | 36.1 µM | > 100 µM | > 100 µM | > 100 µM | 
CC(C)(C)c1ccc(/C=N/NC(=O)CSCC(=O)N/N=C/c2ccc(C(C)(C)C)cc2)cc1 | 5.72 µM | 20.6 µM |  | 5.87 µM | 6.11 µM | 5.21 µM | 19.8 µM | 6.18 µM | 15.5 µM | 38.9 µM
Nc1nc(Nc2ccccc2)sc1C(=O)c1cccs1 | 29.6 µM | > 62.4 µM | 25.5 µM | 40.8 µM | 37.7 µM | 12.5 µM | 31.8 µM | 14.9 µM | 82 µM | 71 µM
O=C(Nc1ccc(Cl)c(Cl)c1)N1N=C2c3ccccc3CCC2C1c1ccc(Cl)cc1 (stereo not drawn) | > 100 µM | > 100 µM | > 100 µM | > 100 µM | > 100 µM | > 100 µM | > 100 µM | > 100 µM | > 100 µM | > 100 µM
C=CCSSCC=C | > 100 µM | > 100 µM | > 71.9 µM | > 100 µM | > 100 µM | 46 µM | > 100 µM | > 100 µM | > 73.2 µM | > 100 µM
O[C@@H]1C[C@H]2N3CC[C@@]2(c2cc4c(cc2C3)OCO4)[C@H]2O[C@@H]12 | > 100 µM | > 100 µM | 0.041 µM | > 100 µM | > 100 µM | > 100 µM | > 100 µM | > 100 µM | > 100 µM | > 100 µM
C[C@]12CC[C@H](O)CC1=CC[C@@H]1[C@@H]2CC[C@]2(C)C(=N/O)/C(=C/c3ccc([N+](=O)[O-])cc3)C[C@@H]12 | 15.5 µM | 22.8 µM | 19.3 µM |  | > 100 µM | 25 µM | 7.37 µM | 60.1 µM | 25.9 µM | 14.9 µM
Cn1c2c3ccc(Cl)cc3nc-2c(Cl)c2ccccc21 | 48.2 µM | 43.9 µM | 49.2 µM | > 100 µM | 63.1 µM | > 100 µM | 90.2 µM | 53.9 µM | 69.2 µM | 37.1 µM
Cc1cc(C)nc(SCCc2cccc[n+]2C)n1 |  | > 100 µM |  | > 100 µM | > 100 µM | > 100 µM | > 100 µM | > 100 µM | > 100 µM | > 100 µM
Clc1ccc(-c2ccc(-c3nn4c(CNc5ccccc5)nnc4s3)o2)c(Cl)c1 | > 100 µM | > 100 µM | 76.4 µM | > 100 µM | > 100 µM | > 100 µM | > 100 µM | > 100 µM | > 100 µM | > 100 µM
SC1CCCN(Cc2ccccc2)C1 (stereo not drawn) | > 100 µM | > 100 µM | > 100 µM | > 100 µM | 72.6 µM | > 100 µM | > 100 µM | > 100 µM | > 100 µM | > 100 µM
COc1cc(S(=O)(=O)Nc2nc(-c3ccc(N4C(=O)/C(=C/c5ccccc5[N+](=O)[O-])N=C4c4ccccc4)cc3)cs2)ccc1Cl | > 100 µM | > 100 µM | > 100 µM | > 100 µM | > 100 µM | > 100 µM |  | > 100 µM | > 100 µM | > 100 µM
O=C(Oc1ccc(Cl)cc1[N+](=O)[O-])c1ccccc1 | > 100 µM | > 100 µM | > 100 µM | > 100 µM | > 100 µM | > 100 µM | > 100 µM | > 100 µM |  | > 100 µM
CC(=O)OCCOc1cc2c([nH]c3ccccc32)c(C)c2cccc1-2 | 4.96 µM | 7.57 µM | 3.62 µM | 3.16 µM | > 24.9 µM | 12.9 µM | 5.17 µM | 10.3 µM | > 100 µM | 5.32 µM
O=C1CCCC2C3CC(CN12)C1CCCCN1C3 (stereo not drawn) | > 100 µM | > 100 µM | > 100 µM | > 100 µM | > 100 µM | > 100 µM | > 100 µM | > 100 µM | > 100 µM | > 100 µM
